Measurements taken from US5232917A, “Methods, compositions, and compounds for allosteric modulation of the GABA receptor by members of the androstane and pregnane series” (priority 1991, dated 1993).
Where two headings read alike, the source gives them in different places.

Key:
[1] = test system: metrazol induced convulsions; experiment: Inhibition of metrazol induced convulsions (Table 2); assay type: in vivo, mice; conditions: Mus musculus; inhibition of metrazol induced convulsions; read-out: Anti-Metrazol ED50
Description: Experiments were also performed to determine the physiological relevance of these interactions by measuring the ability of the compound of and used in the invention to modulate TBPS-induced convulsions in Swiss-Webster mice. […] The time to onset of myoclonus (presence of forelimb clonic activity) induced by TBPS was determined by observing each mouse for a period of 45 minutes. Significant differences between the time to onset in control mice vs. steroid-treated mice were determined by Student's t-test. […] The number of animals with tonic and/or clonic convulsions was recorded. In the maximal electroshock test, 50 mA of current at 60 Hz was delivered through corneal electrodes for 200 msec to induce tonic seizure. […] The ED50 (the dose at which the half-maximal effect occurs) was determined for each screen.
Adult male CFI mice (20-30g) were used in these studies. […] Percent protection against metrazol-induced seizures was plotted against time after administration of the compound. […] Ten to twelve mice were used per dose of test drug. […] The number of animals with tonic and/or clonic convulsions was recorded. The ability of the steroid to abolish the tonic component was defined as the endpoint. Sedative potential was determined by a rotorod test where the number of mice staying on a rotating (6 rpm) rod for ≥1 min. in each of three trials was determined.

[2] = test system: number of light/dark transitions (anxiety); experiment: Light/dark transition test; assay type: in vivo, mice (male N.I.H. Swiss-Webster); conditions: for effect on number of light/dark transitions (words): 3α-OH-DHP 10, 20, 40 mg/kg, 5α-THDOC 20 mg/kg, diazepam 1.0, 5.0, 10, 20 mg/kg, 20 mg/kg
From the text: (§1) The light/dark transition test (Crawley and Goodwin, 1980) is based on the observation that rodents naturally tend to explore novel environments, but open, brightly lit arenas are aversive to the rodents and inhibit exploratory behavior (Christmas and Maxwell, 1970; File, 1980). […] Similar to the light/dark transition test, the open-field test measures the antagonism between the tendency to explore a novel environment and the tendency to remain still in an aversive environment (brightly lit arena). […] The open-field test provides a simple, non-punished assessment of the potential anxiolytic properties of novel compounds. Finally, 3α-OH-DHP was tested for anxiolytic properties in a Vogel conflict paradigm. The ability of BZs to attenuate the suppression of behavior by punishment in conflict paradigms is well established (Gellar et al., 1962; Vogel et al., 1971).
(§2) Male N.I.H. Swiss-Webster mice (Harlan) weighing 15-20 g were used in all experiments. The mice were housed 4/cage in polyethylene cages with sawdust bedding. The colony room was environmentally controlled (22° C.) with a 12 hr. light/dark cycle (0600-1800 hrs.). The mice had free access to food and water. The experiments were run from 0700-1500 hrs. and groups were counterbalanced for time of day effects.
The method used was previously described by Crawley and Goodwin (1980). The apparatus included a large box (26×33×24 cm) connected to a small box (15×22×14 cm) through an opening (5×6 cm). The large box was brightly lit with a standard 100W light bulb, while the small box was kept dark. Following pretreatment with a test drug, mice were placed in the center of the large box and the number of transitions between the large and small boxes was counted for 10 min. […] During the antagonist studies, CGS-8216 was administered 30 min. prior to the test drug.
(§3) 2-Hydroxypropyl β-cyclodextrin Diazepam and chlordiazepoxide are available from Sigma, Co. (St. Louis, Mo.). CGS-8216 was obtained from Ciba-Geigy (Summit, N.J.). All drugs were dissolved in 20% β-cyclodextrin in water and sonicated overnight. All drugs were administered intraperitoneally in a volume of 100 μL/20 g. CGS-8216 was administered subcutaneously in a volume of 100 μL/20 g.
(§4) The vehicle control data were analyzed across test days using an 1-way analysis of variance (ANOVA). […] The dose-response curves were then analyzed using an 1-way ANOVA, followed by Dunnett's t-test for individual comparisons between doses and control. The open-field and habituated locomotor data were analyzed using ANOVA followed by Dunnett's t-test. […] All data is expressed as the mean±S.E.M.

open-field activity = experiment: Open-field activity test; assay type: in vivo, mice (male N.I.H. Swiss-Webster); conditions: for total distance, open-field: 20 mg/kg, 10 min, vehicle 2004.6 ± 134.6; for effect on open-field activity: steroids 20 mg/kg, diazepam 10 mg/kg
From the text: as §1, §2
As a secondary measure of anxiolytic effects, naive mice were placed in the center of a large, brightly lit plexiglass box (42×42×30.5 cm) and the total distance traveled was measured during a 10 min. test period. […] The Digiscan Activity Monitor (Omnitech Electronics, Columbus, Ohio) includes 16 photobeams that surround the box. The activity monitor is linked to a computer through a Digiscan Analyzer (Omnitech Electronics) and the data is analyzed using the Integrated Lab Animal Monitoring System (Omnitech Electronics). The mice were administered drugs as described for light/dark transitions.
as §3, §4

[3] = target: GABA receptor-chloride ionophore complex (GR complex); experiment: [35S]TBPS binding modulation assay
[4] = read-out: IC50, inhibition of [35S]-TBPS binding, +5 μM GABA, in the presence of 5 μM GABA

Compound | ED50 [1] | number of transitions in 10 min (maximal effect) ([2]; 3α-OH-DHP 20 mg/kg i.p., FIG. 9) | effect on number of light/dark transitions (words) [2] | effect on number of light/dark transitions (words) ([2]; listed as α-OH-DHP) | total distance, open-field (open-field activity) | effect on open-field activity (open-field activity) | IC50 [3, 4] | IC50 ([3]; read-out: IC50, inhibition of [35S]-TBPS binding, No GABA, washed synaptoneurosomes, no GABA added) | number of transitions in 10 min ([2]; 5α-THDOC 10 mg/kg i.p., vehicle 35.2±2.0, p<0.06, FIG. 10) | effect on number of light/dark transitions at the highest dose ([2]; 5α-THDOC 40 mg/kg, p<0.05 vs vehicle) | Max. Inhib., maximal % of specifically bound [35S]-TBPS displaced ([3]; saturating concentrations of test compound)
CC(=O)[C@H]1CC[C@H]2[C@@H]3CC[C@H]4C[C@H](O)CC[C@]4(C)[C@H]3CC[C@]12C [Example 3α-OH-DHP, 3α-hydroxy-5α-pregnan-20-one] | 5 mg/kg | 70.2±4.3 transitions | significant (p<0.01) increase | number of transitions was increased | 5344.9 ± 754.5 cm | significant (p<0.01) increases in activity | 38 nM | 230 nM | – | – | –
C[C@]12CC[C@@H](O)C[C@@H]1CC[C@@H]1[C@@H]2CC[C@]2(C)[C@@H](C(=O)CO)CC[C@@H]12 [Example 5α-THDOC, 3α,21-dihydroxy-5α-pregnan-20-one] | 8 mg/kg | – | significantly different from vehicle | – | 7328.4 ± 769.5 cm | significant (p<0.01) increases in activity | 80 nM | – | 49.4±2.0 transitions | significant decrease | 100%
